We go through two molecules from publication PMC8414802, “Hair Cell Generation in Cochlear Culture Models Mediated by Novel γ-Secretase Inhibitors” (Frontiers in Cell and Developmental Biology, 2021).

Where two headings read alike, the source gives them in different places.

In experiment [1] the test system is Myo7a+ hair cells in rat cochlear organoids. As to the kind of experiment: Rat cochlear organoids, hair cell differentiation. The format is cell-based. The note with it: for Total hair cells per organoid prior to normalization: end of differentiation, GSI 5 μM. Here is the method: On day 0, the cochlear sensory epithelium was dissected and the OC was separated from the modiolus and stria vascularis, as described above, from either Wistar rat pups (P2), Lgr5-GFP mice (P0–P2) or Atoh1-GFP mice (P0–P2). To separate the sensory epithelial layer from underlying mesenchyme and neurons, the OC was placed in a 100 μl drop of Matrisperse Cell Recovery Solution (Corning) for 1 h at RT, then delaminated with the aid of forceps. Gentle enzymatic dissociation of hair cells and supporting cells followed with 100 μl drop of TrypLE (Gibco), 20 min at 37°C, then mechanical trituration in DMEM/F12. The cell suspension was centrifuged for 5 min at 500 g at 4°C and resuspended in DMEM/F12 medium supplemented with B27 and N2 (Invitrogen), EGF (50 ng/ml), bFGF (50 ng/ml), IGF (25 ng/ml), CHIR99021 (GSK-3β inhibitor, 3 μM, Merck), valproic acid (HDAC inhibitor, 1 mM, Sigma), 2-phospho-L-ascorbic acid (280 μM, Stemcell Technologies) and 0.01% ampicillin (Sigma). Cells were plated at 2,000 cells per well on 96 wells plate (Corning Costar; ultra-low attachment, round-bottom) to allow aggregation at 37°C. On day 1, Matrigel (GF-depleted, Corning; 2% stock) was added to a final concentration of 0.18 mg/ml. On day 3, cells were transferred to 24 wells plate (ultra-low attachment; Corning Costar), pooling the organoid aggregates from 4 to 5 wells (96 well-plate) to one 24-well, culturing at 37°C and exchanging half medium and Matrigel every other day, On day 10, organoids were differentiated by replacing medium with DMEM/F12 supplemented with B27, N2, CHIR99021 (3 μM), and Notch inhibitors CPD3 (5 μM) or LY411575 (5 μM), and culture was continued as above for another 10 days.
For staining and imaging, organoids were allowed to adhere ON onto transwell-permeable support membranes (Corning) in 12-well plates coated with 100% Matrigel. […] Compiled Z-projections were processed (FIJI, ver2.0) and hair cells quantified on individual planes with manual cell counter plugin, by evaluation of cytosolic expression and nuclear exclusion of Myo7a. […]

Experiment [2] deals with Notch-dependent expression of ATOH1 in LS174T cells. The experiment in a line: ATOH1 expression induction in LS174T cell line by GSIs (RT-PCR). Format: cell-based, human. The note with it: GSI treatment 72 h, fold-change vs 0.05% DMSO, read-out: IC50 for ATOH1 expression upregulation. Here is the method: The human colon cancer cell line LS174T (CL-188; ATCC) was cultured without antibiotics in 1% FBS/Eagle’s Minimum Essential Medium (MEM; Thermo Fisher) ([Asakura et al., 2018]). […]
Cells or tissue were lysed using RLT Lysis Buffer (Qiagen) and high purity RNA was prepared on the MagNA Pure instrument using MagNA Pure 96 Cellular RNA LV Kit (Roche). Reagents from Thermo Fisher were used for cDNA synthesis by reverse transcription using random hexamers. Resulting cDNA was RNAse H treated and amplified by TaqMan GEX mastermix and PCR primers and probes for human ATOH1 (Hs00944192_s1) and TBP (Hs00427620_m1), mouse Tbp (Mm00446971_m1), Atoh1 (Mm00476035_s1), Hes5 (Mm00439311_g1), Pouf4s (Mm04213795_s1), and Myo7a (Mm01274015_m1) on the Applied Biosystems QuantStudio 7 Flex Real-Time PCR System. Normalized to Tbp, relative gene expression fold-change was quantified and compared between experimental and control conditions by ΔΔCt calculation.
Statistical analysis was performed with GraphPad Prism software (Prism9; GraphPad Software Inc., San Diego, CA, United States). For explant cultures, when the number of explants/replicates was not sufficient to test for Gaussian distribution normal distribution of the data was assumed based on previous experiments ([Perny et al., 2017]; [Erni et al., 2019]). Alternatively, the distribution of the datasets was tested by D’Agostino and Pearson normality test. Unpaired t-tests were used to compare parametric data sets of two groups. Welch’s correction was applied if variances were not equal. For non-parametric data, the Mann–Whitney test was adopted. One-way ANOVA was used to determine the difference in means among multiple groups and multiple comparison correction was tested. Graphs indicate the single data point, the mean values ± standard deviation. IC50s were calculated by non-linear regression of data normalized by percent change from controls to compare multiple experiments. Differences in IC50s from Best fit data were compared by Least Squares (F-test; Extra sum of squares; alpha = 0.05).
To measure the relative potency between different GSIs, a pharmacological assay was initially used to identify the dose ranges effective to induce ATOH1 expression. The cell line LS174T, a human colorectal adenocarcinoma, was used to evaluate Notch-dependent expression of ATOH1 ([Kazanjian et al., 2010]). Two compounds from Eli Lilly, designated LY3056480 (CPD3) and LY3056359 (CPD8) (Figures 1A,B) were compared with the commercially available GSIs LY411575 and DAPT. […] The intermediate potency of CPD3 and 8 was likely to be adequate to achieve levels above the IC50 after dilution into perilymph in the inner ear.

On to `COc1ccc2c(c1)N1CCC(C)(C)C1=CC(=O)[C@H]2NC(=O)[C@H](C)NC(=O)CCC(F)(F)F` [CPD3], for which, in experiment [1] (diff D20 vs exp D10, p < 0.05), the “Hair cell numbers during differentiation” value was “significantly increased”. The “Total hair cells per organoid prior to normalization” value in experiment [1] turned out to be 22.8 ± 18.0. For the same molecule, the IC50 (usually the concentration at which inhibition is half-maximal) in experiment [2] (Homo sapiens) was found to be 17.3 nM.

In the case of `C[C@H](NC(=O)[C@@H](O)c1cc(F)cc(F)c1)C(=O)N[C@@H]1C(=O)N(C)c2ccccc2-c2ccccc21` [LY411575], the “Total hair cells per organoid prior to normalization” value in experiment [1] amounted to 17.17 ± 20.9. In addition, in experiment [2], the IC50 stood at 0.4 nM.
